Results: article PMC5007552, “The hVps34‐SGK3 pathway alleviates sustained PI3K/Akt inhibition by stimulating mTORC1 and tumour growth” (The EMBO Journal, 2016)
pIC50: −log10 of the molar value.

What was measured:
PKBa = PKBa (Homo sapiens, UniProt P31749); test: IC50 on recombinant PKBa (Akt1); assay type: biochemical; details: Fig 5B / Appendix Fig S1B, recombinant kinase, unit inferred
Description: (§1) The result for each kinase is presented as a mean kinase activity of the reaction taken in triplicate relative to a control reaction where the inhibitors were omitted. […] SGK3 was immunoprecipitated from cell lysates and subjected to in vitro kinase assay by measuring phosphorylation of the Crosstide substrate peptide in the presence of 0.1 mM [γ‐^32P]ATP in a 30 min 30°C reaction (upper panel). Kinase reactions are presented as means ± SD for triplicate reaction.
(§2) Appendix Figure S1. […] (A) Chemical struc tures of
(§3) Sano/f_i-14g, -14i and -14n compounds. (B) IC50 values of inhibitors on indicated recombinant k inases. […]

S6K1 = S6K1 (Homo sapiens, UniProt P23443); test: IC50 on recombinant S6K1 (p70S6K); assay type: biochemical; details: Fig 5B / Appendix Fig S1B, recombinant kinase, unit inferred
Description: as §1, §2, §3

SGK3[S486E] = target: T1, SGK3[S486E] (Homo sapiens, UniProt Q96BR1, S486E); test: SGK3 kinase assay on phospholipid vesicles: phosphorylation of SGK3[S486E] at Thr320 by PDK1 with PtdIns(3)P; assay type: biochemical; details: in the presence of PtdIns(3)P
T1 construct: host or cells: HEK293
T1 sequence (Q96BR1 1-496 S486E): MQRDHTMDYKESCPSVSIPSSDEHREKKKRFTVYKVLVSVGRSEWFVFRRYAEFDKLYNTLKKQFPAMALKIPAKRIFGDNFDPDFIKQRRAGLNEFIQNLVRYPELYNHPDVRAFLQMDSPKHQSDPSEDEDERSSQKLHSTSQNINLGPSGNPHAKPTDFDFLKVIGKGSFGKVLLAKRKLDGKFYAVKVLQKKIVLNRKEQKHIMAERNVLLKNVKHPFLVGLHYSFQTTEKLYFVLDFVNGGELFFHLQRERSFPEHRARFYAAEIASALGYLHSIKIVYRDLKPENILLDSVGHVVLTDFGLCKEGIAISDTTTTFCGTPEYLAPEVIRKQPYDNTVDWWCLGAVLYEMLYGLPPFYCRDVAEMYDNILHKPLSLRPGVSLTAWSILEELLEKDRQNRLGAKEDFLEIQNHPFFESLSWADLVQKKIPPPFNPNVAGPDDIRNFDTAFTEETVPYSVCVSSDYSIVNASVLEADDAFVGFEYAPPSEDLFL
Description: Figure 4 PtdIns(3)P binding to PX domain of SGK3 promotes phosphorylation and activation by PDK1 • A, B SGK3 [S486E]‐GST and SGK3 [R90A S486]‐GST were purified from HEK293 cells transiently overexpressing these enzymes. […] SGK3[S486E]‐GST (A) or the non‐PtdIns(3)P‐binding mutant SGK3[R90A, S486E]‐GST (B) was incubated with lipid vesicles comprising phosphatidylcholine (PC) and phosphatidylserine (PS) containing the indicted concentrations of PtdIns or PtdIns(3)P in the presence or absence of added recombinant PDK1 (50 ng) and kinase reactions were initiated by addition of MgATP. After 30 min at 30°C, PDK1 was inhibited by addition of the 1 μM GSK2334470 PDK1 inhibitor and the reaction mixture was supplemented with 2 μg GST‐NDRG1 SGK3 substrate. After another 30 min at 30°C, the reaction was terminated by addition of SDS sample buffer. The reaction mixtures were subjected to immunoblot analysis with the indicated antibodies.
as §1, with “reaction. […]” for “reaction.”

MLK3 = MLK3 (Homo sapiens, UniProt Q16584); test: IC50 on recombinant MLK3; assay type: biochemical; details: Fig 5B / Appendix Fig S1B, recombinant kinase, unit inferred
Description: as §1, §2, §3

ZR-75-1 cells = test: Immunoblot of Akt/mTORC1 pathway markers (Akt, PRAS40, TSC2, S6K1, Rictor, S6, 4EBP1) in ZR-75-1 cells; assay type: cell-based, human
Description: Kinase reactions are presented as means ± SD for triplicate reaction. Immunoprecipitates (IP) were also analysed by immunoblot with the indicated antibodies. • SGK3 was knocked down in ZR‐75‐1 cells by using shRNA probe B and compared to a control shRNA probe, named sh scramble. After infection, the cells were kept for 2 days in puromycin selection media and then seeded for the experiment. The cells were treated with 1 μM MK‐2206 for 1 h or 5 days. The cell lysates were subjected to immunoblot analysis with the indicated antibodies.
The cell lysates were analysed by immunoblot using the antibody against phosphorylated Akt phosphorylation consensus motif (RxRxxpS/pT).
HEK293 cells were purchased from the American Tissue Culture Collection (ATCC). Cells were cultured in RPMI or DMEM media supplemented with 10% (v/v) foetal bovine serum, 2 mM L‐glutamine, 100 U/ml penicillin and 0.1 mg/ml streptomycin. Inhibitor treatments were carried out as described in figure legends. During 5 days inhibitor treatments, the media was changed after 72‐h intervals. The cells were lysed in buffer containing 50 mM Tris–HCl (pH 7.5), 150 mM NaCl, 1 mM EDTA, 1 mM EGTA, 1 mM sodium orthovanadate, 10 mM sodium glycerophosphate, 10 mM sodium pyrophosphate, 0.27 M sucrose, 0.1% (v/v) 2‐mercaptoethanol, 1 mM benzamidine and 0.1 mM PMSF. Lysates were clarified by centrifugation at 16,000 g for 10 min at 4°C. Protein concentration was calculated using Bradford assay (Thermo Scientific). Immunoblotting and immunoprecipitation were performed using standard procedures. The signal was developed using ECL Western Blotting Detection Kit (Amersham) on Amersham Hyperfilm ECL film (Amersham).

[1] = 1–3 μM 14h, 1 h, ZR-75-1 in serum
[2] = ZR-75-1, 5 days GDC0941 or MK-2206, then 3 μM 14h 1 h

MLK3, sequence (Q16584 whole entry, species assumed): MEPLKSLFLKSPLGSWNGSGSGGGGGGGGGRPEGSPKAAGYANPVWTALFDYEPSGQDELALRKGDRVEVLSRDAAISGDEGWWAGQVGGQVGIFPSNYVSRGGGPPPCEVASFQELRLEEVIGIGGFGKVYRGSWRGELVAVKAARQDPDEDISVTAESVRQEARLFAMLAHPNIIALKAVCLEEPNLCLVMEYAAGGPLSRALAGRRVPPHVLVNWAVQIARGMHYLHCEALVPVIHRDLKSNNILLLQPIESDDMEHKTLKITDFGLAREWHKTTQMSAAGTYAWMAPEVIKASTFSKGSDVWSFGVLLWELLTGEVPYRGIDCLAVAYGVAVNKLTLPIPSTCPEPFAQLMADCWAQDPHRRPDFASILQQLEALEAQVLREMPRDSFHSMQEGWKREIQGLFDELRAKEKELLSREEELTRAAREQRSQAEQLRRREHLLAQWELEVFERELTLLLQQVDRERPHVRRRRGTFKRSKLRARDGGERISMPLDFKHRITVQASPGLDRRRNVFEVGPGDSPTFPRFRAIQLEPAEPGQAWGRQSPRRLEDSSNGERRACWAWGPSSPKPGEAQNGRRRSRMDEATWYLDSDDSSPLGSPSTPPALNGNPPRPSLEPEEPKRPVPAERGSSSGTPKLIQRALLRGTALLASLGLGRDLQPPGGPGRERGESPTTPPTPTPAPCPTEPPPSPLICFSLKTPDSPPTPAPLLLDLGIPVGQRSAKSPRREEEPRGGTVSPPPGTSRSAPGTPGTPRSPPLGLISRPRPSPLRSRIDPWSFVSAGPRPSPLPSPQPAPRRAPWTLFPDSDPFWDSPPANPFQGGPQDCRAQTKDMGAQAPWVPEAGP
S6K1, sequence (P23443 whole entry): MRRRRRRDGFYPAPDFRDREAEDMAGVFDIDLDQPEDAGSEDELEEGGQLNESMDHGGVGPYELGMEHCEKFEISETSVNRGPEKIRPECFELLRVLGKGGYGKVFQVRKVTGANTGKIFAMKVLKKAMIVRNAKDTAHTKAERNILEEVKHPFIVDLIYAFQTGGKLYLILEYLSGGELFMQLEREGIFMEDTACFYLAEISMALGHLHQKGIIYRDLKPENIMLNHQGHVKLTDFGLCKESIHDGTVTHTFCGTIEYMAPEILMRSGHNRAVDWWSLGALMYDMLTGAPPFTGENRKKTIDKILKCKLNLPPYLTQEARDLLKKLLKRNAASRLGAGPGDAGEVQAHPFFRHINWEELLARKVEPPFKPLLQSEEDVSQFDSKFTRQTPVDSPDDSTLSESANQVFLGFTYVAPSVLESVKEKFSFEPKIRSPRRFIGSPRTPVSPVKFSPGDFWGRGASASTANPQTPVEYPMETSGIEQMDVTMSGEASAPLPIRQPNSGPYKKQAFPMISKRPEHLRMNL
PKBa, sequence (P31749 whole entry): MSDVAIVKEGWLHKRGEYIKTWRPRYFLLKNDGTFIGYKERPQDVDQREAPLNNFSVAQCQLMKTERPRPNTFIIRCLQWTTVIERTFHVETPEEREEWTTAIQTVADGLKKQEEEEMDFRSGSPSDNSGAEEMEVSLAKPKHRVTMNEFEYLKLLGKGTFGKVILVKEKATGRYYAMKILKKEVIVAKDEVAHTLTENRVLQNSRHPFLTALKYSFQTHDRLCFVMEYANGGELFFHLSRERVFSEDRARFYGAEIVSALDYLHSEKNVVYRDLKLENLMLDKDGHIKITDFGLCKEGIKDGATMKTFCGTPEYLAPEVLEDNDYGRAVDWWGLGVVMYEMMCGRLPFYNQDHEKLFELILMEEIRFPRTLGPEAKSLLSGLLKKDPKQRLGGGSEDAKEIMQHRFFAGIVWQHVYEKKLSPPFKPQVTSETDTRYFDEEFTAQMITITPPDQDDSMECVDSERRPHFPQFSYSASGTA

Nc1n[nH]c2nc(-c3ccc(NS(=O)(=O)c4cc(Cl)ccc4Cl)cc3)cnc12 [14h]
pIC50 (PKBa): < 5.00 | pIC50 (S6K1): 7.12 | concentration of near maximal inhibition of PDK1 phosphorylating SGK3[S486E] at Thr320 (SGK3[S486E]): 0.1 µM | pIC50 (MLK3): 7.08 | S6K1 and S6 protein phosphorylation (ZR-75-1 cells; 10 μM 14h, 1 h, ZR-75-1 in serum): moderate reduction | PRAS40 (Akt-specific substrate) phosphorylation (ZR-75-1 cells; [1]): not dephosphorylated | Rictor (Thr1135) and S6 protein (Ser240/244) phosphorylation (ZR-75-1 cells; [1]): failed to significantly inhibit | 4EBP1 phosphorylation (ZR-75-1 cells; [2]): not markedly reduced | TSC2 phosphorylation (ZR-75-1 cells; [2]): suppressed phosphorylation of TSC2 | TSC2, S6K1, Rictor, S6 protein or 4EBP1 phosphorylation or S6K1 activity (ZR-75-1 cells; ZR-75-1 in serum without prolonged PI3K or Akt inhibitor treatment, 3 μM 14h): did not inhibit
